Reference: patent publication US3996381A, “Amphetamine derivatives” (Astra Lakemedel Aktiebolag, priority 1973, dated 1976)

Tests used:
Type in all cases: in vivo
[1] = tested on: aggressive behaviour in mice; experiment: Aggressive behaviour in isolated male mice (antiaggressivity); conditions: Mus musculus, ip, dose which reduces aggressiveness score by 50%, read-out: Antiaggressive behaviour in mice ED50
Description: Potential anxiolytic activity is tested by measuring the antiaggressivity in isolated mice after administration of the test substance. In this test not amphetamine but Valium -- a well-known anxiolytic substance -- is used as a reference.
Aggressive behaviour in mice
Male mice kept isolated for 3 weeks or longer develop an aggressive behavior when caged together. The method used follows that of Valzelli et al. (Europ. J. Pharmacol. 2, 144, 1967), with the exception that 2 mice were tested on each other. The aggressiveness was scored during a 5 min test according to the following schedule:
0 the animals show no interest in each other except occasional nosing
25 frequent vigorous nosing and tail rattling, the animals assume a fighting position and occassionally attack each other -- no more than 3-4 times in the 5 min period
50 tail rattling, powerful attacks -- no more than 10 times in the test period
75 the animals follow their partners, attacking and biting for most of the time
100 attacks over the entire period.
The animals were used for several experiments but with intervals of at least one week. Groups of 10 mice were used.
ED50 is the dose which reduces the aggressiveness score by 50%.

[2] = tested on: syndromes produced by 5-hydroxytryptophan (5-HTP); experiment: 5-HTP response potentiation test; conditions: Mus musculus, ip; mice; before dl-5-HTP 90 mg/kg i.v.
Source text: It is not possible by experimental means to induce depressions in laboratory animals. In order to evaluate a possible anti depressive effect on new substances biochemical-pharmacological test methods must be resorted to. One such method, which seems to give a good indication of the potential anti depressive effects of the test substances, is described in Europ. J. Pharmacol. 17, 107, 1972. This method involves the measurement of the potentiation of the syndromes produced by 5-hydroxytryptophan (5-HTP) in a laboratory animal.
5-HTP response potantiation test
Inhibition of the uptake of 5-HT potentiates the effects of administered 5-hydroxytryptophan (5-HTP) probably by increasing the amount of 5-HT at the receptor. Three mice are given the test drugs 1 hour (or 4, 24 hours) before dl-5-HTP, 90 mg/kg i.v. 5-HTP alone gives only a weak behavioural syndrome but in pretreated mice there is seen a characteristic behavioural syndrome, which comes within five minutes: tremor, lordosis, abduction of the hindlegs, head-twitches.
The absence or presence of respective syndrome is scored in groups of ten mice. The compound was administered in at least five doses and the quantal responses were analysed by probit analysis and ED50 determined according to the method of Litchfield and Wilcoxon.

motor activity in mice = experiment: Motor activity in mice (exploratory activity in locomotion cage); design: key to Motor Activity (+ = increase, - = decrease, 0 = no effect): + = increase; - = decrease; 0 = no effect; conditions: for Motor Activity (+ = increase, - = decrease, 0 = no effect): recorded for ten minutes one hour after administration, compared to control groups
Description: The lack of euphoric effects, that is lack of central stimulatory activity, is tested by measuring the motor activity in mice after administration of the test substance.
The exploratory activity of mice was recorded in a locomotion cage in which the movements were counted each time the animals cross-circuits an electrical current in the bottom plate. The activity was recorded for ten minutes one hour after the administration of the drug. The animals were tested individually. Groups of six mice were used and the mice were only used once. The activity was expressed in per cent of the activity of control groups ran simultaneously. The compounds were administered in at least four doses. The increase (+) or decrease (-) of the activity compared to control groups was determined from log dose response curves.

Compound | ED50 [1] [mg/kg] | ED50 [2] [mg/kg] | Motor Activity (+ = increase, - = decrease, 0 = no effect) (motor activity in mice) | central stimulation (in words) (motor activity in mice)
CCN(CC)c1ccc(CC(C)N)cc1 (centres unmarked) [H H C2 H5 C2 H5 H CH3] | 5 to 10 | 2 | - | 
Cc1cc(N(C)C)ccc1CC(C)N.Cl.Cl (centres unmarked) [H 2-CH3 CH3 CH3 H CH3] | 2.5 to 5 | 0.6 | - | 
CC(N)Cc1ccc(Cl)cc1 (centres unmarked) [p-Chloroamphetamine, reference compound] | 0.3 | 0.8 |  | pronounced
CN(C)c1ccc(CC(C)(C)N)cc1.Cl.Cl [H H CH3 CH3 CH3 CH3] |  | 2.5 | 0 | 
CC(N)Cc1ccccc1 (centres unmarked) [Amphetamine] |  | > 5 |  | pronounced
CC(N)Cc1ccc(N(C)C)cc1Cl.Cl.Cl (centres unmarked) [H 2-Cl CH3 CH3 H CH3] | 2.5 to 5 | 0.25 | - | 
CN1C(=O)CN=C(c2ccccc2)c2cc(Cl)ccc21 [Valium, reference compound] | 2.5 |  |  | 
CCN(C)c1ccc(CC(C)N)cc1 (centres unmarked) [H H C2 H5 CH3 H CH3] | < 5 | 0.7 |  | 
CC(N)Cc1c(Cl)cc(N(C)C)cc1Cl.Cl.Cl (centres unmarked) [2-Cl 6-Cl CH3 CH3 H CH3] | > 5 | 0.1 | - | 
CCNc1ccc(CC(C)N)cc1.Cl.Cl (centres unmarked) [H H C2 H5 H H CH3] | 1.25 | 1 |  | 
CC(N)Cc1ccc(N)cc1 (centres unmarked) [p-Aminoamphetamine, reference compound] |  | 11.5 |  | 
CC(N)Cc1ccc(N(C)C)c(Br)c1.Cl.Cl (centres unmarked) [H 3-Br CH3 CH3 H CH3] | > 5 | 1 |  | 
CC(N)Cc1ccc(N(C)C)cc1Br.Cl.Cl (centres unmarked) [H 2-Br CH3 CH3 H CH3] |  | 0.1 |  | 
CCC(N)Cc1ccc(N(C)C)cc1Cl (centres unmarked) [H 2-Cl CH3 CH3 H C2 H5] |  | 0.25 | 0 | 
CC(N)Cc1ccc2c(c1)CCCN2C.Cl.Cl (centres unmarked) [H H CH3 (CH2)3 H CH3, 6-(2-AMINOPROPYL)-1-METHYL-1, 2, 3, 4-TETRAHYDROQUINOLINE DIHYDROCHLORIDE] | > 5 | 1.5 |  | 
